Like-named read-outs stand apart in the source and are kept apart here.
Legend:
[1] = system: hippocampal granule cells; details: read-out: EC50 for diazepam; cited from earlier work
[2] = target: T1, GABAA receptor (rat α1β2 γ2) (Rattus norvegicus, UniProt P18508+P62813+P63138); assay: cell-based
T1 construct: expressed in transfected cells
Protocol: Doubly transfected cell lines were generated that express GABAA receptor (rat α1β2 γ2) together with a yellow fluorescent protein (YFP) Topaz-based halide sensor (46/148/152 mutant).
Doubly transfected cells were plated onto black-walled, clear-bottomed, poly-D-lysine-coated 384-well plates (Becton Dickinson Biosciences). Prior to the assay, the cell medium was removed and replaced with chloride-free plating medium (CFPM; see the composition below). After the incubation in CFPM for 3-4 hours at 37° C. in a 5% CO2 atmosphere, the medium was removed and replaced with chloride-free assay buffer (CFAB; see the composition below ), containing the final concentrations of test compounds. The cells were incubated for 15-20 minutes in the dark (to preserve fluorescence of the YFP) at room temperature (RT). Once the incubation was complete, the cell plates were transferred to the FLIPR (Molecular Devices Inc., Sunnyvale, Calif.) for the assay.
YFP was excited with 488 nm wavelength light and the fluorescence measured using a 540/60 nm bandpass emission filter. FLIPR settings were routinely adjusted so that the background fluorescence reading at the beginning of the assay was 20,000-50,000 counts/ms. After measuring a baseline readout of 10 seconds, the stimulus buffer was added to the well and signal was recorded for 2-4 more minutes. The stimulus buffer comprised CFAB, except that the sodium gluconate component was replaced with sodium iodide. Note that the addition of the iodide causes quenching of the fluorescent signal. In the majority of the experiments, the final concentration of sodium iodide in the stimulus buffer was about 5 mM.
The fluorescence response was corrected for the background fluorescence, as well as for the fluorescence changes, caused by iodide only. […] The initial analysis and data export was done using FLIPR-384 software (Version 1.25).
Microsoft Excel® was used to plot concentration-response curves and determine an EC50 value. […]

[3] = target: α1-containing isoforms of the GABA(A) receptor; details: read-out: EC50 for diazepam, published electrophysiological recordings; α1-containing isoforms in various expression systems; cited from earlier work
[4] = system: neuronal-like cell line NT-2 N; details: read-out: EC50 for diazepam; cited from earlier work

T1 sequence (P62813 28-455): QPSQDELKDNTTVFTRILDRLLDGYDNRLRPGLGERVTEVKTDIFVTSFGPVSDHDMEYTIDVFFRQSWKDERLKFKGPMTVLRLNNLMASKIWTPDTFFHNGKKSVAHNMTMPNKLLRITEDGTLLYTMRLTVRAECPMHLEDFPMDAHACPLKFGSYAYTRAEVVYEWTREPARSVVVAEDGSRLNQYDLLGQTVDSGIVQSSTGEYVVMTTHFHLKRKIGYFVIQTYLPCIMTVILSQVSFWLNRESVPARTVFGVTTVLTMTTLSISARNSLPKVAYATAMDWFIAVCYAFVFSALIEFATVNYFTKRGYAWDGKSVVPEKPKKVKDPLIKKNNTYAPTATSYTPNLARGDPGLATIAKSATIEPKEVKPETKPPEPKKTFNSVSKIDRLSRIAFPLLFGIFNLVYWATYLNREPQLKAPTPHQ
T1 sequence (P63138 25-474 limits assumed): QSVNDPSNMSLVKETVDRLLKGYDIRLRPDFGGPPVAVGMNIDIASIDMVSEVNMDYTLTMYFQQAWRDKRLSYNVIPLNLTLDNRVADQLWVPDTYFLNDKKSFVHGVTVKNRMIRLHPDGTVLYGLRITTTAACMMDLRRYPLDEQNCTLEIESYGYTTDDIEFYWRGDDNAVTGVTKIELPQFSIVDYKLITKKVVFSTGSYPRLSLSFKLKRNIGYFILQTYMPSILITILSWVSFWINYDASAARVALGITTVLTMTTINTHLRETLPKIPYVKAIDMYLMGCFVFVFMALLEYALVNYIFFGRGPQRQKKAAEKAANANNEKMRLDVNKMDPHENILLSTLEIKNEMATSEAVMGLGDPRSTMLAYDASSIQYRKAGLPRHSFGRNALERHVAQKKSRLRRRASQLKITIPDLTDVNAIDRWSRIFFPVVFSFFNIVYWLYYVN
T1 sequence (P18508 39-466): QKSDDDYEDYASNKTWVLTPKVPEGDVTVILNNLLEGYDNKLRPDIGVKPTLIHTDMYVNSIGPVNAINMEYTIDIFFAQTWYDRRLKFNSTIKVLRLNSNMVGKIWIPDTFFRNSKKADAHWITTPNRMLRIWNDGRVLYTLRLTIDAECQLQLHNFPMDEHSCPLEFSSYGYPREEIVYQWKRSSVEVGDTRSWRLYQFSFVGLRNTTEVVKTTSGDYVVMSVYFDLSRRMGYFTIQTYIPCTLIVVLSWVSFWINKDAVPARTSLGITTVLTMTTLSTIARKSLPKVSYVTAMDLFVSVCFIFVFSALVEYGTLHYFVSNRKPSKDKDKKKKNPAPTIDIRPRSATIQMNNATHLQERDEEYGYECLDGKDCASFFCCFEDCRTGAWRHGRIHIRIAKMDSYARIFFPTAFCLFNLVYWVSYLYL

In the case of CN1C(=O)CN=C(c2ccccc2)c2cc(Cl)ccc21 [diazepam], the EC50 [1] is given as 122 nM, the “Effect on GABA-induced fluorescent signal” value [2] is given as “concentration-dependent increase” and the EC50 [3] is given as 53 to 70 nM. The EC50 [4] was 74 nM.

For CC(=O)[C@H]1CC[C@H]2[C@@H]3CC[C@H]4C[C@H](O)CC[C@]4(C)[C@H]3CC[C@]12C [allopregnanolone], the “Effect on GABA-induced fluorescent signal” value ([2]; against constant GABA 0.25 μM) was “concentration-dependent increase”.

Compound CN1CCc2cc3c(cc2[C@H]1[C@@H]1OC(=O)c2c1ccc1c2OCO1)OCO3 [bicuculline] has an IC50 [2] of 4700 ± 900 nM.
